“Also recorded” adds a separate entry of the source.
Key:
GEO xenograft = test: GEO colon cancer xenograft; format: in vivo, mouse; settings: monotherapy, FIG. 26C
Protocol: Female athymic nu/nu mice, 6-8 weeks of age, were injected subcutaneously on the lateral dorsal surface with 0.4 mL volume of a suspension containing a human tumor cell line in media, diluted 1:1 with MATRIGEL™ (BD Biosciences). The cell lines used in xenograft models, with the cell doses indicated in parenthesis (10^6 cells/mouse), were: human colon carcinoma cell lines DLD-I (5), GEO (5) and HT-29 (5); human breast carcinoma cell lines DU4475 (2), MDA-MB-231 (5), MDA-MB-435 (5), and BT474 (5). When tumors reached approximately 200-300 mm^3, mice were randomized by tumor size and divided into treatment groups. Tumor growth was evaluated approximately twice weekly, with tumor volume calculated as π/6* (Length*Width^2), where Length=longest diameter and Width=diameter perpendicular to Length. Tumor dimensions were measured with calipers. T/C % was calculated as 100*(Final Treatment Tumor Volume/Initial Treatment Tumor Volume)/(Final Control Tumor Volume/Initial Control Tumor Volume).
18F1 was diluted in 0.9% USP saline (Braun) or phosphate buffered saline (PBS) and administered intraperitoneally in a volume of 0.5 mL per mouse. The effect of treatment on tumor growth was analyzed using repeated measures analysis of variance (RM ANOVA), p<0.05 was considered significant.

VEGFR-I = VEGFR-I (Homo sapiens, UniProt P17948); test: VEGFR-I phosphorylation assay, BT474 cells; format: cell-based; design: endogenous in cells; host or cells: BT474 human breast carcinoma cells; settings: BT474 breast cancer cells, compared to untreated control, FIG. 11
Protocol: Confluent porcine aorta endothelial VEGFR-I expressing (PAE-VEGFR-I) cells and BT474 human breast carcinoma cells were cultured in serum-depleted F12 medium for 48 hours. The cells were then preincubated with anti-VEGFR-I antibody clone 18F1 at concentrations ranging from 0.1 to 30 μg/ml for 1 hour followed by stimulating with VEGF or PlGF for 5 minutes at 37° C. The cells were then rinsed with ice-cold PBS and lysed in lysis buffer (50 mM HEPES, 150 mM NaCl, 1% Triton X-100, and 10% glycerol containing 1 mM phenylmethylsulfonyl fluoride, 10 μg/ml aprotinin, 10 μg/ml leupeptin, and 1 mM sodium vanadate). Cell lysates were subjected to SDS-PAGE and transferred onto Immobilon membranes (Millipore Corp. Billerica, Mass.). […]
Autophosphorylation of the VEGFR-I induced by its ligands and resulting activation of a classical MAPK, extracellular signal-regulated protein kinases 1Z2 (ERK1Z2) and the PBK/Atk downstrean signaling pathways mediate cellular biological responses such as proliferation, motility, survival, and differentiation. The ability of an anti-VEGFR-1 antibody to inhibit phosphorylation of VEGFR-I and activation of ERK1 Z2 and the Akt kinases downstream signaling were determined by using the PAE-VEGFR-I transfectant and BT474 breast carcinoma cells. […]

SW480 cells = test: Invasion through MATRIGEL coated membrane; format: cell-based, human; settings: 66 nM antibody, 10 ng/mL VEGF-A or 50 ng/mL VEGF-B, 48 hours, p<0.05, FIG. 24
Protocol: HT-29 cells (2.5×1 10^4) or SW480 cells (1.5×1 10^4) were incubated in medium containing 1% FBS with the anti-VEGFR-1 antibody 18F1 ([…]) 8.0-μm pore size membrane insert (Becton Dickinson Labware, Bedford, Mass.). The inserts were placed into lower chambers containing 10 ng/mL VEGF-A (R&D Systems) or 50 ng/mL VEGF-B (R&D Systems) for 48 hours. Cells remaining in the top chamber of the inserts were removed with a cotton swab. Cells migrating to the underside of the inserts were stained with Diff-Quik (Harleco, Gibbstown, N.J.) and counted in ten random fields at 100× magnification. Statistical analysis was performed using InStat Statistical Software (V2.03, GraphPad Software, San Diego, Calif.).

Chain of VEGFR-I (P17948 27-1338): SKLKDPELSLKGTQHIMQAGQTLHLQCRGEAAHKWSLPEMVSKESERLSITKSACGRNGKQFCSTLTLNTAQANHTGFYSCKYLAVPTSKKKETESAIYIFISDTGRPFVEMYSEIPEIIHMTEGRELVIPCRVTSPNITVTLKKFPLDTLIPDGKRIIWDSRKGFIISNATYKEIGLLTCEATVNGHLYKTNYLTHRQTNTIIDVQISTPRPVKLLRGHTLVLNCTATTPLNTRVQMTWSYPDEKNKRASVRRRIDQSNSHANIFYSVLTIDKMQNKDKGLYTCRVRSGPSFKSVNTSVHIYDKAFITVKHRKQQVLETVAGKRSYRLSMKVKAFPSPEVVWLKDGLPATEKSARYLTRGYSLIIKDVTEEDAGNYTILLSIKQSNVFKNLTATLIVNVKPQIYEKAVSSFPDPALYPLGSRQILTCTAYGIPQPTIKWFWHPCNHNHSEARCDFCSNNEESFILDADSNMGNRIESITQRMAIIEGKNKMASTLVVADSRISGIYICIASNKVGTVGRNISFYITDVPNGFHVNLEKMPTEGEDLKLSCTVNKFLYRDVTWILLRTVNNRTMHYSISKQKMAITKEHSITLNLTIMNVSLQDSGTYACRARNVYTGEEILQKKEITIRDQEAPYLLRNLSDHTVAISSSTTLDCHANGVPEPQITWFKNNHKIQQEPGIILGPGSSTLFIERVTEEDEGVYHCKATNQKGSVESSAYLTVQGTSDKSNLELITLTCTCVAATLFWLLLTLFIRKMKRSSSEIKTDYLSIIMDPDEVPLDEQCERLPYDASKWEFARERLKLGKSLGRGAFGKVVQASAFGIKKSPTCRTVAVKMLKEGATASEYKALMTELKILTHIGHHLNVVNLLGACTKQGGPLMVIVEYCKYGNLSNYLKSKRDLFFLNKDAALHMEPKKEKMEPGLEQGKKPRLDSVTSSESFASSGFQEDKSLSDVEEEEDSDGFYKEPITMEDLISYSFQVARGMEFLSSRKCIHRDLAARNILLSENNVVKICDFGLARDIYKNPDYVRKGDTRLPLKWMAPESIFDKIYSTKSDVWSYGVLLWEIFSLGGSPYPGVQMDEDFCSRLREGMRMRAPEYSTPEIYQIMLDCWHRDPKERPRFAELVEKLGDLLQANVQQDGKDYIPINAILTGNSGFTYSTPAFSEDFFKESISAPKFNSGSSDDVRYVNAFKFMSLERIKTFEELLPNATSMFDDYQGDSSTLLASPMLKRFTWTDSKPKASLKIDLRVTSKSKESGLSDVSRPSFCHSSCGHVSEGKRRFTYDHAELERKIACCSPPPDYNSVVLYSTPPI

## 18F1: human anti-VEGFR-1 monoclonal antibody clone; VL SEQ ID NO: 16, VH SEQ ID NO: 20 [Clone 18F1]
GEO xenograft
  antitumor effect against GEO colon cancer xenografts: significant antitumor effect
VEGFR-I
  PlGF or VEGF-stimulated phosphorylation of VEGFR-I: significantly reduced; also recorded: inhibition
SW480 cells
  VEGFR-I ligand induced invasion: completely blocked
